Source: patent US20220274927A1, “MEMBRANE-ACTIVE ANTI-BACTERIAL COMPOUNDS AND USES THEREOF” (Trustees of Dartmouth College, priority 2019, published 2022)
≈ marks a conversion by molar mass, not a printed value. Entries after “also recorded” stand apart in the source; their conditions may differ. Like-named read-outs stand apart in the source and are kept apart here.

Columns and labels:
[1] = tested on: methicillin-resistant S. aureus (FPR3757); test: MIC against clinical MRSA strain FPR3757 in Mueller-Hinton broth (CLSI); format: cell-based, Staphylococcus aureus; settings: MRSA clinical strain FPR3757, Mueller-Hinton broth, CLSI guidelines, complete inhibition of observable growth
Text: (§1) The first set of compounds evaluated were analogs at the C-7 and C-8 positions of the initial quinolone hit DNAC-2 since the other HTS hits identified (data not shown) were substituted at these positions (Table 1). Applicants first explored modification at the C-7 position with a small series of electron-donating and withdrawing substituents. […] However, analogs containing electron donating groups at C-7 including ethyl 7, benzyloxy 8, methoxy 9 and methylthio 10 are weakly active displaying MICs of 320-640 μg/mL indicating electron-donating substituents at C-7 are poorly tolerated. […] The C-8 position was evaluated with trifluoromethyl 4 and trifluoromethoxy 5 containing the optimal C-7 substituents. Both 4 and 5 are equipotent to the corresponding C-7 analogs 2 and 3 indicating some flexibility of the quinolone scaffold.

[2] = tested on: S. aureus membranes (versus erythrocyte membranes); test: in vitro; format: cell-based, sheep; settings: sheep
Protocol: (§2) FIG. 8 illustrates percent hemolysis analysis of sheep erythrocytes. Concentration-dependent hemolysis was measured by monitoring the optical density (OD)540 of PBS-washed sheep erythrocytes. Complete hemolysis (100%) was confirmed by treatment of erythrocytes with Triton X-100. Data points represent the mean±SD of triplicate experiments.
(§3) The macromolecular synthesis assay, TEM, and FM experiments were all consistent with membrane disruption. […] The high membrane selectivity of the 5-aminoquinolin-4-ones in this assay is impressive and is in accordance with the observed therapeutic index (CC50/MIC).

sheep erythrocytes = test: in vitro; format: cell-based; settings: for hemolysis: sheep, 32 μg/mL
Protocol: as §2, §3

S. aureus N325 = test: Antimicrobial susceptibility MIC, S. aureus N325; format: cell-based; settings: Staphylococcus aureus; S. aureus strain N325
Text: as §1
(§4) The compounds maintain activity against Staphylococcus epidermidis; however, 31, 111 and 123 all lose considerable potency against Enterococcus faecalis and Enterococcus faecium, which contribute heavily, along with MRSA, to healthcare-associated infections.

E. faecalis DHMC #1 = test: Antimicrobial susceptibility MIC, E. faecalis DHMC #1; format: cell-based; settings: Enterococcus faecalis; E. faecalis strain DHMC #1
Text: as §1, §4

[3] = tested on: S. aureus (strain USA300); test: Transmission electron microscopy of treated cells; format: cell-based; settings: 1× MIC, after 10 minutes, vs DMSO
Protocol: FIGS. 6A, 6B and 6C illustrate transmission electron microscopy (TEM) imaging of MRSA USA300 treated with compounds 22 and 31.
Transmission electron microscopy (TEM) and fluorescence microscopy (FM) allowed Applicants to directly observe the effects of the novel 4-aminoquinolines […] 5-aminoquinolones on the cell morphology of staphylococci.
(§5) These cellular defects were not seen in any of the control cells treated with DMSO. Fluorescent microscopy was performed on a S. aureus (strain COL) strain after treatment with either DMSO, 31 or 123 for 30 minutes followed by staining with FM 4-64 (red membrane stain), bodipy-vancomycin (Van-FL, green stain), and Hoechst (blue DNA stain).

[4] = tested on: clinical methicillin-resistant Staphylococcus aureus (MRSA) isolates; test: MIC against panel of MRSA / staphylococcal strains (text summaries); format: cell-based
Text: as §1, §4

S. aureus (strain COL) = test: Fluorescent microscopy of membrane, cell wall and DNA; format: cell-based; settings: 1× MIC, 30 minutes, vs DMSO
Protocol: FIGS. 7A and 7B illustrate fluorescent microscopy (FM) analysis of the membrane, cell wall, and DNA in MRSA. FM of COL MRSA strain treated with compound 123 (FIG. 7B, bottom row) at 1×MIC and DMSO (FIG. 7A, top row) for 30 minutes followed by staining with FM-64 (far left column, 0.5 μg/mL), VanFL (second column, 1 μg/mL), and Hoechst (third column, 1 μg/mL) for 5 minutes and washed with 1× phosphate buffered saline (PBS) before imaging (fourth column, overlay).
as §5

S. aureus (MRSA) = test: In vitro time-kill assay; format: cell-based; settings: 1× MIC, initial inoculum 10^5 CFU, plating over six hours
Protocol: FIG. 4 illustrates in vitro time-kill analysis of methicillin resistant Staphylococcus aureus (MRSA). Bacterial killing was monitored by measuring the colony forming unit (CFU) for six hours when treated with compounds 22, 31, 117, and 123 at 1× the minimum inhibitory concentration (MIC) of each compound. The CFU at each time point was determined by plating and then compared to a dimethyl sulfoxide (DMSO) control.
While the MIC data confirmed that these compounds were at least bacteriostatic, Applicants wanted to test for bactericidal properties of both the aminoquinoline and aminoquinolone scaffolds. […] The kinetics of bacterial killing was assessed in vitro using time-kill assays by incubating compounds at 1× their MIC with an initial inoculum of 10^5 colony forming units (CFU) of S. aureus and removing aliquots at various time points to determine the residual CFU by plating.

S. aureus NRS71 = test: Antimicrobial susceptibility MIC, S. aureus NRS71; format: cell-based; settings: Staphylococcus aureus; S. aureus strain NRS71
Text: as §1, §4

Staphylococcus simulans = test: Macromolecular synthesis assays (radiolabeled precursor incorporation); format: cell-based
Text: FIG. 5 illustrates macromolecular synthesis assays (representative data with 123). Time-course for inhibition of incorporation of radiolabeled precursors [^3H]-L-isoleucine (protein), [^3H]-thymidine (DNA), [^3H]-uridine (RNA), and [^3H]-glucosamine (cell wall) in S. simulans by 123 at 0.5×, 1× and 5×MIC. Data are expressed as the percentage of inhibition relative to the DMSO only negative control. The positive control antibiotics denoted by closed circles were used at 10× MIC. Data represent the mean±standard deviation (SD) of triplicate experiments.
Classical macromolecular synthesis assays were performed to provide insight on the putative mechanism of action of the most promising quinoline 31 and quinolone 123 candidates. Disruption of bacterial membranes is not only rapid, but interferes with all major metabolic activities in the cell and is thus easily distinguished by macromolecular synthesis assays. […] The control antibiotics ciprofloxacin, rifampicin, vancomycin and tetracycline were included as inhibitors of DNA, RNA, cell wall, and protein synthesis, respectively. The cells were quenched at various time points with 10% trichloroacetic acid (TCA), filtered, washed and the amount of precursor incorporation was quantified by scintillation counting.

S. aureus COL = test: Antimicrobial susceptibility MIC, S. aureus COL; format: cell-based; settings: Staphylococcus aureus; S. aureus strain COL
Text: as §1, §4

E. faecium DHMC #1 = test: Antimicrobial susceptibility MIC, E. faecium DHMC #1; format: cell-based; settings: Enterococcus faecium; E. faecium strain DHMC #1
Text: as §1, §4

S. epidermidis NIH04003 = test: Antimicrobial susceptibility MIC, S. epidermidis NIH04003; format: cell-based; settings: Staphylococcus epidermidis; S. epidermidis strain NIH04003
Text: as §1, §4

S. aureus NIH04008 = test: Antimicrobial susceptibility MIC, S. aureus NIH04008; format: cell-based; settings: Staphylococcus aureus; S. aureus strain NIH04008; read-out: MIC
Text: as §1, §4

S. aureus MW2 = test: Antimicrobial susceptibility MIC, S. aureus MW2; format: cell-based; settings: Staphylococcus aureus; S. aureus strain MW2; read-out: MIC
Text: as §1, §4

[5] = tested on: MRSA clinical strain S. aureus FPR3757; test: Minimum bactericidal concentration (MBC) against S. aureus FPR3757; format: cell-based
[6] = Staphylococcus aureus, MRSA, read-out: MIC

O=c1cc(C(F)(F)F)[nH]c2cc(C(F)(F)F)cc(NC3CCC(C(F)(F)F)CC3)c12 (centres unmarked) [Compound 117]
MIC [1, 6]: < 0.06 µg/mL
selectivity ratio [2]: > 500
hemolysis (sheep erythrocytes): None of the compounds except 76, displayed any hemolysis

O=c1cc(C(F)(F)F)[nH]c2cc(C(F)(F)F)cc(N3CCOCC3)c12 [Compound 118]
MIC [1, 6]: > 32 µg/mL

O=c1cc(C(F)(F)F)[nH]c2cc(Nc3ccc(Cl)c(Cl)c3)cc(C(F)(F)F)c12 [Compound 119]
MIC [1, 6]: 1 µg/mL (≈ 2.27 µM)

O=c1cc(C(F)(F)F)[nH]c2cc(Nc3ccc(F)c(F)c3)cc(C(F)(F)F)c12 [Compound 120]
MIC [1, 6]: 4 µg/mL (≈ 9.8 µM)

O=c1cc(C(F)(F)F)[nH]c2cc(Nc3ccc(C(F)(F)F)cn3)cc(C(F)(F)F)c12 [Compound 122]
MIC [1]: 4 µg/mL (≈ 9.07 µM)

O=c1cc(C(F)(F)F)[nH]c2cc(F)cc(Nc3ccc(C(F)(F)F)cn3)c12 [Compound 123]
MIC (S. aureus N325): < 0.06 µg/mL
MIC (E. faecalis DHMC #1): 8 µg/mL (≈ 20.4 µM)
MIC [1]: <0.06 µg/mL
MIC [1, 6]: < 0.06 µg/mL
cell morphology in TEM images [3]: cross-wall-septum formation with reduced splitting; also recorded: mesosome-like membrane inclusions
MIC ([4]; read-out: MIC against numerous clinical MRSA isolates): ≤ 0.06 µg/mL
MIC ([4]; six S. aureus strains of Table 9, read-out: MIC towards all six S. aureus strains): < 0.06 µg/mL
selectivity ratio [2]: > 500
hemolysis (sheep erythrocytes): None of the compounds except 76, displayed any hemolysis
DNA and cell wall staining (Hoechst, Van-FL) (S. aureus (strain COL)): little or no change compared to the DMSO control
membrane staining (FM 4-64) (S. aureus (strain COL)): membrane defects
time-kill: CFU reduction (S. aureus (MRSA)): reduced the CFU below the limit of detection at four to six hours
MIC (S. aureus NRS71): < 0.06 µg/mL
inhibition of DNA, RNA, protein and cell-wall synthesis (Staphylococcus simulans; 0.5×, 1× and 5× MIC): concentration-dependent inhibition of DNA, RNA, protein and cell-wall synthesis
inhibition of macromolecular processes at 5× MIC (Staphylococcus simulans; 5× the MIC, DNA, RNA, protein, cell wall precursor incorporation): completely inhibited all macromolecular processes
MIC (S. aureus COL): < 0.06 µg/mL
MIC (E. faecium DHMC #1): 8 µg/mL (≈ 20.4 µM)
MIC (S. epidermidis NIH04003): < 0.06 µg/mL
MIC (S. aureus NIH04008): < 0.06 µg/mL
MIC (S. aureus MW2): < 0.06 µg/mL
MBC relative to MIC [5]: MBCs equal to their MIC values

Triton X-100 [reference compound]
lysis (positive control) (sheep erythrocytes): 100%
